This note sets out measurements from ChEMBL document CHEMBL4507276 (2021).

Holding throughout (conditions): Compound concentration 1000.0 nM
Test [1] relates to Phosphatidylinositol 4,5-bisphosphate 3-kinase catalytic subunit alpha isoform (Homo sapiens), P42336 [I800L].
Test [2] deals with T1, Serine/threonine-protein kinase Sgk2 (Homo sapiens) (UniProt Q9HBY8).
T1 sequence (whole entry): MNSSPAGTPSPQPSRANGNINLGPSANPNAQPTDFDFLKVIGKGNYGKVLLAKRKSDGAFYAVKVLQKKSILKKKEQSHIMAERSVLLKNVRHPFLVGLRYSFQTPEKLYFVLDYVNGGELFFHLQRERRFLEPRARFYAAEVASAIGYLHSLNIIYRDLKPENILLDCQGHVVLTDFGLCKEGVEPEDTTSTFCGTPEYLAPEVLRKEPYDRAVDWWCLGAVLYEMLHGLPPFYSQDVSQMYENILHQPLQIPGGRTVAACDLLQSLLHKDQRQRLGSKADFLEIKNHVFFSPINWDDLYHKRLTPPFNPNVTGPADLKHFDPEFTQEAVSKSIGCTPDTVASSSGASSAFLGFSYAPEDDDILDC

In test [3] the test system is ALK tyrosine kinase receptor (Homo sapiens), Q9UM73 [L1196M].
Test [4] concerns the target T2, Serine/threonine-protein kinase D2 (Homo sapiens) (UniProt Q9BZL6).
T2 sequence (whole entry): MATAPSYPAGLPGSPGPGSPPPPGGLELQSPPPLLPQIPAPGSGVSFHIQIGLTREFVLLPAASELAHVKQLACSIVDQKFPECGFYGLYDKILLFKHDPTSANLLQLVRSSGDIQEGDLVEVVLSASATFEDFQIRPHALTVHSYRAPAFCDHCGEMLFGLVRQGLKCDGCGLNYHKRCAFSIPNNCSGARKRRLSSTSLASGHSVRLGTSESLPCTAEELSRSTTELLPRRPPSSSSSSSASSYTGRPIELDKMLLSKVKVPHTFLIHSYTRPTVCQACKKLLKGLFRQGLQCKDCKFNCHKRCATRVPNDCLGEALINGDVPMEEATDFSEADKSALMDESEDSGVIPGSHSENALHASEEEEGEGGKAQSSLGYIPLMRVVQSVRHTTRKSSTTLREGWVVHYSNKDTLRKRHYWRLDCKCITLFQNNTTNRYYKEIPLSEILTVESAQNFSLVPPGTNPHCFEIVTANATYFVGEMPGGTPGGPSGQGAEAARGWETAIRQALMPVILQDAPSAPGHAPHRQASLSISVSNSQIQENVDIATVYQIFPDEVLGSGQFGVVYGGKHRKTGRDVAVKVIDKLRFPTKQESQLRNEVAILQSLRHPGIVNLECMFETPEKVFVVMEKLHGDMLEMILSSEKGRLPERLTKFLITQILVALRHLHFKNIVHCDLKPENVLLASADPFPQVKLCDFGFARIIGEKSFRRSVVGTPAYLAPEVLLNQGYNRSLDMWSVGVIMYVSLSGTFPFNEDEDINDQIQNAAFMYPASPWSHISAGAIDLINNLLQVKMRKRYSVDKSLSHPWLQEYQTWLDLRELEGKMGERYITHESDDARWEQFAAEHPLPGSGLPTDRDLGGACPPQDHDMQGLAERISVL

Test [5] deals with Mast/stem cell growth factor receptor Kit (Homo sapiens) (UniProt P10721).
Test [6] has as its target Cyclin-dependent kinase 2 homolog (Plasmodium falciparum (isolate 3D7)) (UniProt P61075).
In test [7] the target is T3, Inhibitor of nuclear factor kappa-B kinase subunit epsilon (Homo sapiens) (UniProt Q14164).
T3 sequence (whole entry): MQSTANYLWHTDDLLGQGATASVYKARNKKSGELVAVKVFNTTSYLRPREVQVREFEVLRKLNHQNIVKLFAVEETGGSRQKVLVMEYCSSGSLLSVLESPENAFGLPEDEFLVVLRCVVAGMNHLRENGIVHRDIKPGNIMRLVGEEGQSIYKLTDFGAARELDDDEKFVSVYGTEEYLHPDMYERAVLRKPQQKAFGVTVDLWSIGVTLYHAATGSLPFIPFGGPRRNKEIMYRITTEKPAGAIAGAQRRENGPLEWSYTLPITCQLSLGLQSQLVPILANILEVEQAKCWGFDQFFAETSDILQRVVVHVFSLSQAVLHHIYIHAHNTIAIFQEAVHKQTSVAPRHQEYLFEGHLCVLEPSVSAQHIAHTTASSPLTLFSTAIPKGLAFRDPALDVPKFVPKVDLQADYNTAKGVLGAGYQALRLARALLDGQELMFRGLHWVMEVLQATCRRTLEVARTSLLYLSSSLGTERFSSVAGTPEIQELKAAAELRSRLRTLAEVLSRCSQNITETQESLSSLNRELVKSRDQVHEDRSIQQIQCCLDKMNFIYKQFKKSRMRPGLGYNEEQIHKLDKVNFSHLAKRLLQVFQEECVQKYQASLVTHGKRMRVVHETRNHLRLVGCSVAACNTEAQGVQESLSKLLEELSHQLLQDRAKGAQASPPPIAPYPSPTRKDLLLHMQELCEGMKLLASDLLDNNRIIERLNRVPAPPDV

Test [8] concerns the target Vascular endothelial growth factor receptor 3 (Homo sapiens) (UniProt P35916).
In test [9] the target is Serine/threonine-protein kinase MRCK alpha (Homo sapiens) (UniProt Q5VT25).
For test [10], the target named is cAMP-dependent protein kinase catalytic subunit alpha (Homo sapiens) (UniProt P17612).
In test [11] the target is Dual specificity mitogen-activated protein kinase kinase 4 (Homo sapiens) (UniProt P45985).
The target in test [12] is Serine/threonine-protein kinase 32C (Homo sapiens) (UniProt Q86UX6).
The target of test [13] is Serine/threonine-protein kinase ULK3 (Homo sapiens) (UniProt Q6PHR2).
The target of test [14] is Ankyrin repeat and protein kinase domain-containing protein 1 (Homo sapiens) (UniProt Q8NFD2).
Test [15] addresses Rhodopsin kinase GRK1 (Homo sapiens) (UniProt Q15835).
The target in test [16] is Mitogen-activated protein kinase kinase kinase 6 (Homo sapiens) (UniProt O95382).
The test system of test [17] is Tyrosine-protein kinase ABL1 (Homo sapiens), P00519 [H396P].
The target in test [18] is AP2-associated protein kinase 1 (Homo sapiens) (UniProt Q2M2I8).

Chain of ALK tyrosine kinase receptor (Homo sapiens), Q9UM73 [L1196M] (Q9UM73 whole entry L1196M, looked up): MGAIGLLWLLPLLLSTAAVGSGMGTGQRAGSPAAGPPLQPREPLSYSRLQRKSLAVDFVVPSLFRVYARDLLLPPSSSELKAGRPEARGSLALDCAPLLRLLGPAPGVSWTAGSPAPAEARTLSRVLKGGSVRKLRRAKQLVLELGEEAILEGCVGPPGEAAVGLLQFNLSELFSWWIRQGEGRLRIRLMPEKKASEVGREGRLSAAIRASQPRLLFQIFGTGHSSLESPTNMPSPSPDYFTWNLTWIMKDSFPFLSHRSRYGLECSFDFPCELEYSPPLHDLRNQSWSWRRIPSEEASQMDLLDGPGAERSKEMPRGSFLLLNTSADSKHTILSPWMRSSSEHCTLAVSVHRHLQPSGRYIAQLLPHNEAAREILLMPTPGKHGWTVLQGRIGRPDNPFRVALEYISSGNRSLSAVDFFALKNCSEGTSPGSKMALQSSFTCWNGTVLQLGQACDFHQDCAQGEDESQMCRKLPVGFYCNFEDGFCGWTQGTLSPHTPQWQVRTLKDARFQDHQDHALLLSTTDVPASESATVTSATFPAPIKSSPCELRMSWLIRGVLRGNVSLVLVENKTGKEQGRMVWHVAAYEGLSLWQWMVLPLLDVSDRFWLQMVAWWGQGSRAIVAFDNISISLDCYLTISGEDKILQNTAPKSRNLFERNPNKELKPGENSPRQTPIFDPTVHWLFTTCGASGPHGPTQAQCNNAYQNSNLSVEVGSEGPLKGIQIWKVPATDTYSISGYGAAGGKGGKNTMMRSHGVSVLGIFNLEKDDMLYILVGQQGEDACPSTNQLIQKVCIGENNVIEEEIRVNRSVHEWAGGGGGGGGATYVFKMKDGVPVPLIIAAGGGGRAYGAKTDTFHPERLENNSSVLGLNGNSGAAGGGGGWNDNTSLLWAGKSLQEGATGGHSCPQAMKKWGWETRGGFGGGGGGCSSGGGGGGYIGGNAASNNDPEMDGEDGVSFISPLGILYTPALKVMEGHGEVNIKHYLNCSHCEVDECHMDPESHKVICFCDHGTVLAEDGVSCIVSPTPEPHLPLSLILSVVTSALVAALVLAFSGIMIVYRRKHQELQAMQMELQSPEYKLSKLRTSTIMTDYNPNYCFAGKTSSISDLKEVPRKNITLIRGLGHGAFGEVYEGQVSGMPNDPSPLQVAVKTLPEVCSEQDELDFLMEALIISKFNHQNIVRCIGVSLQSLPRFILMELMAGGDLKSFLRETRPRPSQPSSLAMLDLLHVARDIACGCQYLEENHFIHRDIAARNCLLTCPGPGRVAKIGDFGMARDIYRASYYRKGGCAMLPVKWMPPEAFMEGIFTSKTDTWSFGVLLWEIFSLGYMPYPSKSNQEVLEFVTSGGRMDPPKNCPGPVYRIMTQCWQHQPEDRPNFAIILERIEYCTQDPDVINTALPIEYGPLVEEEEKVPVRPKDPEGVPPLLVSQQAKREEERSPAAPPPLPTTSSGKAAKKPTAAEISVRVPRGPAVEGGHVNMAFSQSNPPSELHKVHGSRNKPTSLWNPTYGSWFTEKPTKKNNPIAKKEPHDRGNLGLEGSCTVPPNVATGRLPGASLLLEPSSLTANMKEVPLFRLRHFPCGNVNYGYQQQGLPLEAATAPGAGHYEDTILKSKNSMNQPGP
Chain of Serine/threonine-protein kinase MRCK alpha (Homo sapiens) (Q5VT25 whole entry): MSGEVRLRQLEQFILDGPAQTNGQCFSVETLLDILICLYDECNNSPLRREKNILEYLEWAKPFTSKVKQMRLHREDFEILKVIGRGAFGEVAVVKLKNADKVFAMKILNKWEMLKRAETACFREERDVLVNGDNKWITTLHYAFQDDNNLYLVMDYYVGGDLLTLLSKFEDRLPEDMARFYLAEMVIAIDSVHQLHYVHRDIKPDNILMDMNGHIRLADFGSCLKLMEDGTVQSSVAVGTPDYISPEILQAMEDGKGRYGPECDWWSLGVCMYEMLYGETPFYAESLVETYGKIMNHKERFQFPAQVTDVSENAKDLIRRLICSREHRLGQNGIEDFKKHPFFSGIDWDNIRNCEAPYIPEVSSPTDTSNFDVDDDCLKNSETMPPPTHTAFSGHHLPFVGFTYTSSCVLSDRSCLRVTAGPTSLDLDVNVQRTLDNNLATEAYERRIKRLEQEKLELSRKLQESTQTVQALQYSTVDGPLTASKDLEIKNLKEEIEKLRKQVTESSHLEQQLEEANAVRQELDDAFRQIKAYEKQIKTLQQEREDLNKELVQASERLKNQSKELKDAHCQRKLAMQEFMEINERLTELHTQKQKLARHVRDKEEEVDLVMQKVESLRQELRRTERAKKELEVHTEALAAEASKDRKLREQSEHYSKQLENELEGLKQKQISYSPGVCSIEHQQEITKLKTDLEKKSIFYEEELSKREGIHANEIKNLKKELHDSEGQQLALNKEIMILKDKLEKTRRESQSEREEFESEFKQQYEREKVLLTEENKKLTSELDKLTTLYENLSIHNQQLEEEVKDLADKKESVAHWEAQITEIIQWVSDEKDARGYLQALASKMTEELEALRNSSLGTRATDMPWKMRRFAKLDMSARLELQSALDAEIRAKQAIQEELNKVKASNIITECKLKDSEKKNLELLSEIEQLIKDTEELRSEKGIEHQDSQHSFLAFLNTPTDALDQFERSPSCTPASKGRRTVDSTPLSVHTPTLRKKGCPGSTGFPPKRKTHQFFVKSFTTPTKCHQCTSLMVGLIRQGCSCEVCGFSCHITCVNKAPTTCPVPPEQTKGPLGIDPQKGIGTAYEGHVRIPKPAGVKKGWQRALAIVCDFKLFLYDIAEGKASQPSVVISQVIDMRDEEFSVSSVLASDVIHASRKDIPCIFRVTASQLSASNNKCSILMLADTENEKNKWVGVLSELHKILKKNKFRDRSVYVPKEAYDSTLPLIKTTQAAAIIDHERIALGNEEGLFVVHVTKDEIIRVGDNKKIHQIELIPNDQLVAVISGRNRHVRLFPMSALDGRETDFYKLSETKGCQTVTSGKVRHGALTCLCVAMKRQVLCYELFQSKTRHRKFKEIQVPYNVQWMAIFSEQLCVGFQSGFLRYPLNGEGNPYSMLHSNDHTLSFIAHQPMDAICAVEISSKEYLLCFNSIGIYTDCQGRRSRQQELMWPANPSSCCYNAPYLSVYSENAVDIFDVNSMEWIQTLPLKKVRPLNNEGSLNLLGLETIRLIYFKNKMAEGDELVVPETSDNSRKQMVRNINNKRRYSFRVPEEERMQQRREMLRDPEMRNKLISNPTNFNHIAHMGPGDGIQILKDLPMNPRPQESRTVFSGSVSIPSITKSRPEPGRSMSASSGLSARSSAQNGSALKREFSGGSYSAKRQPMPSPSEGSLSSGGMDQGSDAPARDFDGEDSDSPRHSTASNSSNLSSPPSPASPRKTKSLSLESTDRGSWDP
Chain of Rhodopsin kinase GRK1 (Homo sapiens) (Q15835 whole entry): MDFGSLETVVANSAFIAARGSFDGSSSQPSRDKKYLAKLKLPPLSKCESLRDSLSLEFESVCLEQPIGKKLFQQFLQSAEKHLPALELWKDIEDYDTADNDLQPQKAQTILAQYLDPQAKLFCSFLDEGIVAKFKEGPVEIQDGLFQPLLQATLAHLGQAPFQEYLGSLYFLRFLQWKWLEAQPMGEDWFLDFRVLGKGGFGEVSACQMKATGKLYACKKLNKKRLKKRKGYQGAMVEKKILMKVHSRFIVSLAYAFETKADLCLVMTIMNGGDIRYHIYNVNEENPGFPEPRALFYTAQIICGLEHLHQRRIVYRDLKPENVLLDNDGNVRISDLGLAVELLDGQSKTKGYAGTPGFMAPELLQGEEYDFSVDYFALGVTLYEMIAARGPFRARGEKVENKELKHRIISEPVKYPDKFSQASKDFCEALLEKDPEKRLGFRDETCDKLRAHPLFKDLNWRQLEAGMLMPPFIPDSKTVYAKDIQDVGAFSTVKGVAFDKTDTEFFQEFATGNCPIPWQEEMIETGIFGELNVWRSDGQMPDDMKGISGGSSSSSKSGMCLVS
Chain of Serine/threonine-protein kinase 32C (Homo sapiens) (Q86UX6 whole entry): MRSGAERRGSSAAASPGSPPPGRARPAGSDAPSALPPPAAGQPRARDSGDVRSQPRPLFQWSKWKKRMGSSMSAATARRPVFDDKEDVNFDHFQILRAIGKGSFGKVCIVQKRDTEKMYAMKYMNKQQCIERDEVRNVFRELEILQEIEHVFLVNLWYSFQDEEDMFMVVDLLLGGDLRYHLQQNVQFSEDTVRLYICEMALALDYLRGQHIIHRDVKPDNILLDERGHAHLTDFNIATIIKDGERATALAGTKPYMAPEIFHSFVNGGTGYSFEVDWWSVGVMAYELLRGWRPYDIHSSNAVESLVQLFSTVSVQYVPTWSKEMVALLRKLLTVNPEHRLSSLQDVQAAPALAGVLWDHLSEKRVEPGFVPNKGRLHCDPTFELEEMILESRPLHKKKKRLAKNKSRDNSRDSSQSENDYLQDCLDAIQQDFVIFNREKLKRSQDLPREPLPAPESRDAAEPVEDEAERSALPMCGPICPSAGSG
Chain of Serine/threonine-protein kinase ULK3 (Homo sapiens) (Q6PHR2 whole entry, the tested form may be a part): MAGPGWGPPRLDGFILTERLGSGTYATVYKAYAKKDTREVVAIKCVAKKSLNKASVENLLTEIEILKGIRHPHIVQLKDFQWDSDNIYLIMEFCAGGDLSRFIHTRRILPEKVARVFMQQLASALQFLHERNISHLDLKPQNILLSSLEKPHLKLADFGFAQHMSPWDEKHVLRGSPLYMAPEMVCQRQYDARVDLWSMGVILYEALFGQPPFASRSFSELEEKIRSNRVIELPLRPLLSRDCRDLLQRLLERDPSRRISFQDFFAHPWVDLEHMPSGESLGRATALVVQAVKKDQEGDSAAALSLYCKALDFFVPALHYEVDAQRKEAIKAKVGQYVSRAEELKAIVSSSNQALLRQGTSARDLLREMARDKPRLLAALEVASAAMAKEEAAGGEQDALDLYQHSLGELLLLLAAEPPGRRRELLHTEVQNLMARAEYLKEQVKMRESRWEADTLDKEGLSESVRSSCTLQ

For the molecule `CN(C)C(=O)Cn1cc(-c2nc(C3(c4ccc(-c5cnc(N)nc5)cc4)CC3)no2)cn1` [BI 0153], the residual activity is 91% in test [1]; 100% in test [2]; 92% in test [3]; 89% in test [4]; 93% in test [5]; 100% in test [6]. Further, the residual activity is 57% in test [7]; 95% in test [8]; 100% in [9]; 91% in test [10]; 93% in test [11]; 100% in test [12]. Also, the residual activity in test [13] is 68%; in test [14], 81%; in [15], 74%; in [16], 78%; in test [17] it was 100%; in test [18], 100%.
`CN(C)C(=O)Cn1cc(-c2nc([C@@](C)(c3ccc(-c4cnc(N)nc4)cc3)C3CC3)no2)cn1` [BI 665915]: the residual activity in [1] is 54%; in test [2], 83%; in [3], 90%; in test [4] it was 100%; in test [5], 87%; in [6] it was 0%. The residual activity is 86% in test [7]; 88% in test [8]; 100% in test [9]; 87% in [10]; 100% in [11]; 88% in [12]. In addition, the residual activity was 86% in test [13]; 81% in test [14]; 100% in test [15]; 90% in [16]; 76% in test [17]; 100% in test [18].
